What follows are compounds tested against T1, human Prostaglandin D Synthase (GST2) (Homo sapiens, UniProt O60760) (assay: Homogeneous biochemical assay of human Prostaglandin D Synthase (GST2) based on its glutathion-S-transferase activity (GSH conjugation to monochlorobimane, fluorescence)). Details: given beside the compound name in Examples 1 to 167; read-out: Potency Range (GST2 IC50).
T1 construct: the open reading frame of human Prostaglandin D Synthase was amplified from cDNA; made in house; host or cells: E. coli TOP10F'
Description: Homogeneous, Biochemical Assay Monitoring the Activity of Human Prostaglandin D Synthase Based on the Glutathion-S-Transferase Activity of the Enzyme
Prostaglandin D2 synthesis by Prostaglandin D synthase (GST2) requires transfer of Glutathion (GSH) to the substrate, Prostaglandin H2. […] Since the Prostaglandin D2 synthesis is absolutely dependent on the GST activity of the enzyme, assays monitoring the GST activity should allow to identify specific inhibitors of Prostaglandin D2 synthetic activity. The assay principle used is based on enzymatic conjugation of GSH to Monochlorobimane (MCB), that becomes fluorescent upon this chemical modification. Therefore, the enzymatic reaction can be monitored by total fluorescence measurement.
In brief, the open reading frame of human Prostaglandin D Synthase was amplified from cDNA using the primer pair:
This construct allows prokaryotic expression of Prostaglandin D Synthase as fusion protein with a N-terminal hexa-histidine tag, referred to as NHis-Prostaglandin D Synthase.
Expression of NHis-Prostaglandin D Synthase was in E. coli TOP10F′ (Invitrogen, Germany, cat. no. C3030-03). […] When the culture had reached a density corresponding to an A600 of 0.6, an equal volume of room temperature LB/ampicillin was added. […] Cells harvested by centrifugation were resuspended in 50 mM tris(hydroxymethyl)aminomethane hydrochloride pH 7.5 (Tris/HCl, Sigma, cat. no. T5941).
Removal of unbound material was with 100 ml lysis buffer. Elution was with 50 ml of 50 mM Tris/HCl pH 7.5, 300 mM imidazol (Sigma, Germany, cat. no. I2399)/HCl pH 7.5). […] Aliquots were shock frozen in liquid nitrogen and stored at −80° C.
All assay components were diluted in reaction buffer, 50 mM MES/KOH (pH 6.1), 0.7 mM GSH (Sigma, G4251), 2 mM MgCl2 (Sigma, M2670), 0.05% Pluronic F127 (Sigma, P2443), and stored on ice prior to use. Compounds were diluted in 90% DMSO yielding final assay concentrations from the picomolar to three digit micromolar range.
Total fluorescent measurement was carried out with excitation and emission wavelength of 390 and 460 nm, respectively (BMG Fluostar Optima).

T1 sequence (O60760 whole entry): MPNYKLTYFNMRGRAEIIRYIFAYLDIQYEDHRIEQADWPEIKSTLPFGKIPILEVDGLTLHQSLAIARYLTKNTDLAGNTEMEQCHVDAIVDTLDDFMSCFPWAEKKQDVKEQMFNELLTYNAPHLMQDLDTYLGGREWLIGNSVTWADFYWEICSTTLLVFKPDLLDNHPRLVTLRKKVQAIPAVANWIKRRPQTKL

Compound | IC50 [nM]
4-(3-Fluoro-benzoyl)-piperazine-1-carboxylic acid [4-(2-methyl-thiazol-3-yl)-phenyl]-amide [Compound 29] | 11 to 100
CC(C)(C)c1ccc(NC(=S)N2CCN(C(=O)c3ccccc3)CC2)cc1 [Compound 1, 4-Benzoyl-piperazine-1-carbothioic acid (4-tert-butyl-phenyl)-amide] | 1 to 10
CN(C)c1ccc(NC(=S)N2CCN(C(=O)c3ccccc3)CC2)cc1 [Compound 2, 4-Benzoyl-piperazine-1-carbothioic acid (4-dimethylamino-phenyl)-amide] | 1 to 10
O=C(c1ccccc1)N1CCN(C(=S)Nc2ccc([N+](=O)[O-])cc2)CC1 [Compound 3, 4-Benzoyl-piperazine-1-carbothioic acid (4-nitro-phenyl)-amide] | 11 to 100
O=C(c1ccccc1)N1CCN(C(=S)Nc2ccc(F)cc2)CC1 [Compound 4, 4-Benzoyl-piperazine-1-carbothioic acid (4-fluoro-phenyl)-amide] | 101 to 1000
O=C(c1ccccc1)N1CCN(C(=S)Nc2cccc3ccccc23)CC1 [Compound 5, 4-Benzoyl-piperazine-1-carbothioic acid naphthalen-1-ylamide] | 11 to 100
COC(=O)c1ccc(NC(=S)N2CCN(C(=O)c3ccccc3)CC2)cc1 [Compound 6, 4-[(4-Benzoyl-piperazine-1-carbothioyl)-amino]-benzoic acid methyl ester] | 11 to 100
Cc1ccc(NC(=S)N2CCN(C(=O)c3ccccc3)CC2)cc1 [Compound 7, 4-Benzoyl-piperazine-1-carbothioic acid p-tolylamide] | 101 to 1000
CC(C)(C)c1ccc(NC(=S)N2CCN(C(=O)c3ccc(F)cc3)CC2)cc1 [Compound 8, 4-(4-Fluoro-benzoyl)-piperazine-1-carbothioic acid (4-tert-butyl-phenyl)-amide] | 11 to 100
O=C(c1ccc(F)cc1)N1CCN(C(=S)Nc2ccc(Oc3ccccc3)cc2)CC1 [Compound 9, 4-(4-Fluoro-benzoyl)-piperazine-1-carbothioic acid (4-phenoxy-phenyl)-amide] | 101 to 1000
CN(C)c1ccc(NC(=S)N2CCN(C(=O)c3ccc(F)cc3)CC2)cc1 [Compound 10, 4-(4-Fluoro-benzoyl)-piperazine-1-carbothioic acid (4-dimethylamino-phenyl)-amide] | 101 to 1000
COC(=O)c1ccc(NC(=S)N2CCN(C(=O)c3ccc(F)cc3)CC2)cc1 [Compound 11, 4-{[4-(4-Fluoro-benzoyl)-piperazine-1-carbothioyl]-amino}-benzoic acid methyl ester] | 101 to 1000
COc1ccc(NC(=S)N2CCN(C(=O)c3ccc(F)cc3)CC2)cc1 [Compound 12, 4-(4-Fluoro-benzoyl)-piperazine-1-carbothioic acid (4-methoxy-phenyl)-amide] | 101 to 1000
Cc1ccc(NC(=S)N2CCN(C(=O)c3ccc(F)cc3)CC2)cc1 [Compound 13, 4-(4-Fluoro-benzoyl)-piperazine-1-carbothioic acid p-tolylamide] | 101 to 1000
CN(C)c1ccc(NC(=S)N2CCN(C(=O)c3cccnc3)CC2)cc1 [Compound 14, 4-(Pyridine-3-carbonyl)-piperazine-1-carbothioic acid (4-dimethylamino-phenyl)-amide] | 101 to 1000
O=C(c1cccc(F)n1)N1CCN(C(=S)Nc2ccc(Oc3ccccc3)cc2)CC1 [Compound 17, 4-(6-Fluoro-pyridine-2-carbonyl)-piperazine-1-carbothioic acid (4-phenoxy-phenyl)-amide] | 101 to 1000
O=C(c1cccc(F)n1)N1CCN(C(=S)Nc2ccc(OC(F)F)cc2)CC1 [Compound 18, 4-(6-Fluoro-pyridine-2-carbonyl)-piperazine-1-carbothioic acid (4-difluoromethoxy-phenyl)-amide] | 101 to 1000
O=C(c1cccc(F)n1)N1CCN(C(=S)Nc2ccc(OC(F)(F)F)cc2)CC1 [Compound 19, 4-(6-Fluoro-pyridine-2-carbonyl)-piperazine-1-carbothioic acid (4-trifluoromethoxy-phenyl)-amide] | 101 to 1000

Compound | IC50 [nM]
O=C(c1cccc(F)n1)N1CCN(C(=S)Nc2ccc(C(F)(F)F)cc2)CC1 [Compound 20, 4-(6-Fluoro-pyridine-2-carbonyl)-piperazine-1-carbothioic acid (4-trifluoromethyl-phenyl)-amide] | 101 to 1000
O=C(c1cccc(F)c1)N1CCN(C(=S)Nc2ccc(C(F)(F)F)cc2)CC1 [Compound 23, 4-(3-Fluoro-benzoyl)-piperazine-1-carbothioic acid (4-trifluoromethyl-phenyl)-amide] | 11 to 100
O=C(Nc1cc(Cl)nc(Cl)c1)N1CCN(C(=O)c2cccc(F)c2)CC1 [Compound 24, 4-(3-Fluoro-benzoyl)-piperazine-1-carboxylic acid (2,6-dichloro-pyridin-4-yl)-amide] | 101 to 1000
O=C(Nc1cccc(Oc2ccccc2)c1)N1CCN(C(=O)c2cccc(F)c2)CC1 [Compound 25, 4-(3-Fluoro-benzoyl)-piperazine-1-carboxylic acid (3-phenoxy-phenyl)-amide] | 11 to 100
O=C(Nc1ccc(Oc2ccccc2)cc1)N1CCN(C(=O)c2cccc(F)c2)CC1 [Compound 26, 4-(3-Fluoro-benzoyl)-piperazine-1-carboxylic acid (4-phenoxy-phenyl)-amide] | 11 to 100
O=C(Nc1ccc2sccc2c1)N1CCN(C(=O)c2cccc(F)c2)CC1 [Compound 27, 4-(3-Fluoro-benzoyl)-piperazine-1-carboxylic acid benzo[b]thiophen-5-ylamide] | 11 to 100
O=C(Nc1ccc(-c2cccs2)cc1)N1CCN(C(=O)c2cccc(F)c2)CC1 [Compound 28, 4-(3-Fluoro-benzoyl)-piperazine-1-carboxylic acid (4-thiophen-2-yl-phenyl)-amide] | 11 to 100
O=C(Nc1cccc(N2CCOCC2)c1)N1CCN(C(=O)c2cccc(F)c2)CC1 [Compound 31, 4-(3-Fluoro-benzoyl)-piperazine-1-carboxylic acid (3-morpholin-4-yl-phenyl)-amide] | 101 to 1000
O=C(Nc1cccc(Br)c1)N1CCN(C(=O)c2cccc(F)c2)CC1 [Compound 32, 4-(3-Fluoro-benzoyl)-piperazine-1-carboxylic acid (3-bromo-phenyl)-amide] | 11 to 100
CCOC(=O)c1ccc(NC(=O)N2CCN(C(=O)c3cccc(F)c3)CC2)cc1 [Compound 33, 4-{[4-(3-Fluoro-benzoyl)-piperazine-1-carbonyl]-amino}-benzoic acid ethyl ester] | 101 to 1000
COC(=O)c1cccc(NC(=O)N2CCN(C(=O)c3cccc(F)c3)CC2)c1 [Compound 34, 3-{[4-(3-Fluoro-benzoyl)-piperazine-1-carbonyl]-amino}-benzoic acid methyl ester] | 11 to 100
N#Cc1cccc(NC(=O)N2CCN(C(=O)c3cccc(F)c3)CC2)c1 [Compound 35, 4-(3-Fluoro-benzoyl)-piperazine-1-carboxylic acid (3-cyano-phenyl)-amide] | 11 to 100
O=C(Nc1cccc([N+](=O)[O-])c1)N1CCN(C(=O)c2cccc(F)c2)CC1 [Compound 36, 4-(3-Fluoro-benzoyl)-piperazine-1-carboxylic acid (3-nitro-phenyl)-amide] | 101 to 1000
O=C(Nc1ccc([N+](=O)[O-])cc1)N1CCN(C(=O)c2cccc(F)c2)CC1 [Compound 37, 4-(3-Fluoro-benzoyl)-piperazine-1-carboxylic acid (4-nitro-phenyl)-amide] | 101 to 1000
O=C(Nc1ccc(N2CCOCC2)c(Cl)c1)N1CCN(C(=O)c2cccc(F)c2)CC1 [Compound 38, 4-(3-Fluoro-benzoyl)-piperazine-1-carboxylic acid (3-chloro-4-morpholin-4-yl-phenyl)-amide] | 11 to 100
O=C(c1cccc(F)n1)N1CCN(C(=S)Nc2ccc(N3CCOCC3)c(F)c2)CC1 [Compound 40, 4-(6-Fluoro-pyridine-2-carbonyl)-piperazine-1-carbothioic acid (3-fluoro-4-morpholin-4-yl-phenyl)-amide] | 101 to 1000
O=C(Nc1ccc(N2CCOCC2)c(F)c1)N1CCN(C(=O)c2cccc(F)c2)CC1 [Compound 41, 4-(3-Fluoro-benzoyl)-piperazine-1-carboxylic acid (3-fluoro-4-morpholin-4-yl-phenyl)-amide] | 11 to 100
O=C(c1ccccc1)c1ccc(NC(=O)N2CCN(C(=O)c3cccc(F)c3)CC2)cc1 [Compound 42, 4-(3-Fluoro-benzoyl)-piperazine-1-carboxylic acid (4-benzoyl-phenyl)-amide] | 11 to 100

Reference: patent US20100234377A1 (priority 2007, published 2010)
